# Biological target: T1, human PAH with the R408W mutation (Homo sapiens, UniProt P00439, R408W)
# T1 construct: expressed in transfected cells
# T1 sequence (P00439 1-452 R408W): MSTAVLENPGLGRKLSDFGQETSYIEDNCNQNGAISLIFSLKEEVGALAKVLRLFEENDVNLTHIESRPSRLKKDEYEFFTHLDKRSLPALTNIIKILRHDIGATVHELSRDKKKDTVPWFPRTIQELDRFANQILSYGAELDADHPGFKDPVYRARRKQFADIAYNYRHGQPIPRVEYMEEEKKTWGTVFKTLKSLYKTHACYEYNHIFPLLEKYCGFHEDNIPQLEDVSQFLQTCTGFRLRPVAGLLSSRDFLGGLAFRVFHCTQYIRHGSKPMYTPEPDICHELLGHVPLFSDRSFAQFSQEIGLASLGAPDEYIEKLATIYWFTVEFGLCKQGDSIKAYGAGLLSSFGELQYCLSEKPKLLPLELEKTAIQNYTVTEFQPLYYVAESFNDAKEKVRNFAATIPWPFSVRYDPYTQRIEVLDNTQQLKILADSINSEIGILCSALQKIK
# Assay: Cell Based Phenylalanine Flux Assay
# Conditions: A375 cells expressing human R408W PAH; 24 hrs compound incubation; 13C-Tyrosine by LC-MS; average where tested multiple times; read-out: AC50
row,AC50,SMILES
1,500 to 1000 nM,"O=C(CC1(O)CCC1)N1CCc2[nH]cnc2[C@H]1c1nc2c(F)cccc2s1 [Example 1647, (S)-1-(4-(4-fluorobenzo[d]thiazol-2-yl)-6,7-dihydro-1H-imidazo[4,5-c]pyridin-5(4H)-yl)-2-(1-hydroxycyclobutyl)ethanone]"
2,1000 to 5000 nM,"O=C(CC1(O)CCC1)N1CCc2[nH]cnc2[C@@H]1c1nc2c(F)cccc2s1 [Example 1648, (R)-1-(4-(4-fluorobenzo[d]thiazol-2-yl)-6,7-dihydro-1H-imidazo[4,5-c]pyridin-5(4H)-yl)-2-(1-hydroxycyclobutyl)ethanone]"
3,< 500 nM,"O=C(CC1CC(F)C1)N1CCc2[nH]cnc2[C@H]1c1nc2c(F)cccc2s1 (stereo partly drawn) [Example 1649, (S)-1-(4-(4-fluorobenzo[d]thiazol-2-yl)-6,7-dihydro-1H-imidazo[4,5-c]pyridin-5(4H)-yl)-2-(3-fluorocyclobutyl)ethanone]"
4,1000 to 5000 nM,"O=C(CC1CC(F)C1)N1CCc2[nH]cnc2[C@@H]1c1nc2c(F)cccc2s1 (stereo partly drawn) [Example 1650, (R)-1-(4-(4-fluorobenzo[d]thiazol-2-yl)-6,7-dihydro-1H-imidazo[4,5-c]pyridin-5(4H)-yl)-2-(3-fluorocyclobutyl)ethanone]"
5,500 to 1000 nM,"N#Cc1nc(N2CCC(F)CC2)oc1C(=O)N1CCc2[nH]cnc2[C@H]1c1nc2ccccc2s1 [Example 1651, (S)-5-(4-(benzo[d]thiazol-2-yl)-4,5,6,7-tetrahydro-1H-imidazo[4,5-c]pyridine-5-carbonyl)-2-(4-fluoropiperidin-1-yl)oxazole-4-carbonitrile]"
6,> 5000 nM,"N#Cc1nc(N2CCC(F)CC2)oc1C(=O)N1CCc2[nH]cnc2[C@@H]1c1nc2ccccc2s1 [Example 1652, (R)-5-(4-(benzo[d]thiazol-2-yl)-4,5,6,7-tetrahydro-1H-imidazo[4,5-c]pyridine-5-carbonyl)-2-(4-fluoropiperidin-1-yl)oxazole-4-carbonitrile]"
7,500 to 1000 nM,"O=C(c1cnc(-c2ccccn2)o1)N1CC2(CC2)c2[nH]cnc2[C@H]1c1nc2ccccc2s1 [Example 1653, (S)-(4′-(benzo[d]thiazol-2-yl)spiro[cyclopropane-1,7′-imidazo[4,5-c]pyridin]-5′(1′H,4′H,6′H)-yl)(2-(pyridin-2-yl)oxazol-5-yl)methanone]"
8,1000 to 5000 nM,"O=C(c1cnc(-c2ccccn2)o1)N1CC2(CC2)c2[nH]cnc2[C@@H]1c1nc2ccccc2s1 [Example 1654, (R)-(4′-(benzo[d]thiazol-2-yl)spiro[cyclopropane-1,7′-imidazo[4,5-c]pyridin]-5′(1′H,4′H,6′H)-yl)(2-(pyridin-2-yl)oxazol-5-yl)methanone]"
9,500 to 1000 nM,"O=C(N1CCc2[nH]cnc2[C@H]1c1nc2c(F)cccc2s1)C(F)(F)C1(O)CCC1 [Example 1655, (S)-2,2-difluoro-1-(4-(4-fluorobenzo[d]thiazol-2-yl)-6,7-dihydro-1H-imidazo[4,5-c]pyridin-5(4H)-yl)-2-(1-hydroxycyclobutyl)ethanone]"
10,1000 to 5000 nM,"O=C(N1CCc2[nH]cnc2[C@@H]1c1nc2c(F)cccc2s1)C(F)(F)C1(O)CCC1 [Example 1656, (R)-2,2-difluoro-1-(4-(4-fluorobenzo[d]thiazol-2-yl)-6,7-dihydro-1H-imidazo[4,5-c]pyridin-5(4H)-yl)-2-(1-hydroxycyclobutyl)ethanone]"
11,< 500 nM,O=C(CC1(O)CCC1)N1CCc2[nH]cnc2[C@H]1c1nc2ccccc2s1 [Example 1657]
12,500 to 1000 nM,"O=C(CC1(O)CCC1)N1CCc2[nH]cnc2[C@@H]1c1nc2ccccc2s1 [Example 1658, (R)-1-(4-(benzo[d]thiazol-2-yl)-6,7-dihydro-1H-imidazo[4,5-c]pyridin-5(4H)-yl)-2-(1-hydroxycyclobutyl)ethanone]"
13,1000 to 5000 nM,Cc1nc(CCN(C)C)oc1C(=O)N1CCc2[nH]cnc2[C@H]1c1nc2ccccc2s1 [Example 1659]
14,> 5000 nM,"Cc1nc(CCN(C)C)oc1C(=O)N1CCc2[nH]cnc2[C@@H]1c1nc2ccccc2s1 [Example 1660, (R)-(4-(benzo[d]thiazol-2-yl)-6,7-dihydro-1H-imidazo[4,5-c]pyridin-5(4H)-yl)(2-(2-(dimethylamino)ethyl)-4-methyloxazol-5-yl)methanone]"
15,500 to 1000 nM,"N#Cc1ncoc1C(=O)N1CCc2[nH]cnc2[C@H]1c1nc2c(F)cccc2s1 [Example 1661, (S)-5-(4-(4-fluorobenzo[d]thiazol-2-yl)-4,5,6,7-tetrahydro-1H-imidazo[4,5-c]pyridine-5-carbonyl)oxazole-4-carbonitrile]"
16,1000 to 5000 nM,"N#Cc1ncoc1C(=O)N1CCc2[nH]cnc2[C@@H]1c1nc2c(F)cccc2s1 [Example 1662, (R)-5-(4-(4-fluorobenzo[d]thiazol-2-yl)-4,5,6,7-tetrahydro-1H-imidazo[4,5-c]pyridine-5-carbonyl)oxazole-4-carbonitrile]"

row,AC50,SMILES
1,> 5000 nM,"N#Cc1ncoc1C(=O)N1CC2(CC2)c2[nH]cnc2[C@@H]1c1nc2ccccc2s1 [Example 1663, (R)-5-(4′-(benzo[d]thiazol-2-yl)-1′,4′,5′,6′-tetrahydrospiro[cyclopropane-1,7′-imidazo[4,5-c]pyridin]-5′-ylcarbonyl)oxazole-4-carbonitrile]"
2,1000 to 5000 nM,"N#Cc1ncoc1C(=O)N1CC2(CC2)c2[nH]cnc2[C@H]1c1nc2ccccc2s1 [Example 1664, (S)-5-(4′-(benzo[d]thiazol-2-yl)-1′,4′,5′,6′-tetrahydrospiro[cyclopropane-1,7′-imidazo[4,5-c]pyridin]-5′-ylcarbonyl)oxazole-4-carbonitrile]"
3,< 500 nM,O=C(c1oc(CCN2CC(F)C2)nc1C(F)(F)F)N1CCc2[nH]cnc2[C@H]1c1nc2c(F)cccc2s1 [Example 1665]
4,< 500 nM,"O=C(c1oc(CCN2CC(F)C2)nc1C(F)(F)F)N1CCc2[nH]cnc2[C@@H]1c1nc2c(F)cccc2s1 [Example 1666, (R)-(2-(2-(3-fluoroazetidin-1-yl)ethyl)-4-(trifluoromethyl)oxazol-5-yl)(4-(4-fluorobenzo[d]thiazol-2-yl)-6,7-dihydro-1H-imidazo[4,5-c]pyridin-5(4H)-yl)methanone]"
5,1000 to 5000 nM,"O=C(c1ocnc1C(F)(F)F)N1CC2(CC2)c2[nH]cnc2[C@@H]1c1nc2ccccc2s1 [Example 1667, (R)-(4′-(benzo[d]thiazol-2-yl)spiro[cyclopropane-1,7′-imidazo[4,5-c]pyridin]-5′(1′H,4′H,6′H)-yl)(4-(trifluoromethyl)oxazol-5-yl)methanone]"
6,< 500 nM,"O=C(c1ocnc1C(F)(F)F)N1CC2(CC2)c2[nH]cnc2[C@H]1c1nc2ccccc2s1 [Example 1668, (S)-(4′-(benzo[d]thiazol-2-yl)spiro[cyclopropane-1,7′-imidazo[4,5-c]pyridin]-5′(1′H,4′H,6′H)-yl)(4-(trifluoromethyl)oxazol-5-yl)methanone]"
7,< 500 nM,"O=C(c1ocnc1C1CC1)N1CC2(CC2)c2[nH]cnc2[C@H]1c1nc2ccccc2s1 [Example 1669, (S)-(4′-(benzo[d]thiazol-2-yl)spiro[cyclopropane-1,7′-imidazo[4,5-c]pyridin]-5′(1′H,4′H,6′H)-yl)(4-cyclopropyloxazol-5-yl)methanone]"
8,1000 to 5000 nM,"O=C(c1ocnc1C1CC1)N1CC2(CC2)c2[nH]cnc2[C@@H]1c1nc2ccccc2s1 [Example 1670, (R)-(4′-(benzo[d]thiazol-2-yl)spiro[cyclopropane-1,7′-imidazo[4,5-c]pyridin]-5′(1′H,4′H,6′H)-yl)(4-cyclopropyloxazol-5-yl)methanone]"
9,500 to 1000 nM,Cc1nc(CCCN2CC(F)C2)oc1C(=O)N1CCc2[nH]cnc2[C@H]1c1nc2ccccc2s1 [Example 1671]
10,> 5000 nM,"Cc1nc(CCCN2CC(F)C2)oc1C(=O)N1CCc2[nH]cnc2[C@@H]1c1nc2ccccc2s1 [Example 1672, (R)-(4-(benzo[d]thiazol-2-yl)-6,7-dihydro-1H-imidazo[4,5-c]pyridin-5(4H)-yl)(2-(3-(3-fluoroazetidin-1-yl)propyl)-4-methyloxazol-5-yl)methanone]"
11,> 5000 nM,"N#Cc1nc(OCCC(F)(F)F)oc1C(=O)N1CCc2[nH]cnc2[C@@H]1c1nc2ccccc2s1 [Example 1673, (R)-5-(4-(benzo[d]thiazol-2-yl)-4,5,6,7-tetrahydro-1H-imidazo[4,5-c]pyridine-5-carbonyl)-2-(3,3,3-trifluoropropoxy)oxazole-4-carbonitrile]"
12,500 to 1000 nM,"N#Cc1nc(OCCC(F)(F)F)oc1C(=O)N1CCc2[nH]cnc2[C@H]1c1nc2ccccc2s1 [Example 1674, (S)-5-(4-(benzo[d]thiazol-2-yl)-4,5,6,7-tetrahydro-1H-imidazo[4,5-c]pyridine-5-carbonyl)-2-(3,3,3-trifluoropropoxy)oxazole-4-carbonitrile]"
13,< 500 nM,CN(C)CCc1nc(C(F)(F)F)c(C(=O)N2CCc3[nH]cnc3[C@H]2c2nc3c(F)cccc3s2)o1 [Example 1675]
14,< 500 nM,"CN(C)CCc1nc(C(F)(F)F)c(C(=O)N2CCc3[nH]cnc3[C@@H]2c2nc3c(F)cccc3s2)o1 [Example 1676, (R)-(2-(2-(dimethylamino)ethyl)-4-(trifluoromethyl)oxazol-5-yl)(4-(4-fluorobenzo[d]thiazol-2-yl)-6,7-dihydro-1H-imidazo[4,5-c]pyridin-5(4H)-yl)methanone]"
15,500 to 1000 nM,"CC(C)(O)c1ncc(C(=O)N2CC3(CC3)c3[nH]cnc3[C@H]2c2nc3ccccc3s2)o1 [Example 1677, (S)-(4′-(benzo[d]thiazol-2-yl)spiro[cyclopropane-1,7′-imidazo[4,5-c]pyridin]-5′(1′H,4′H,6′H)-yl)(2-(2-hydroxypropan-2-yl)oxazol-5-yl)methanone]"
